Test results taken from patent US11679098B2, “Methods for treating diseases” (UNIVERSITY OF LOUISVILLE RESEARCH FOUNDATION, INC., priority 2018, dated 2023).

Legend:
[1] = tested on: MGST1 knockout A549 cells; assay: Relative proliferation of MGST1 knockout A549 cells (CRISPR/Cas9); type: cell-based, human; conditions: two different gRNA sequences, 72 h
Experimental: FIG. 3: To assess the role of MGST1 in XB05 activity, we engineered MGST1 knockout cells using CRISPR/Cas9 technology. Western blot analysis indicating the knockout of MGST1 in A549 cells.
(§1) FIG. 4: To assess the role of MGST1 in XB05 activity, we engineered MGST1 knockout cells using CRISPR/Cas9 technology. Effect of XB05 treatment (72 h) on the relative proliferation of two independent clones of A549 cancer cells that express MGST1 (non-transfected, non-targeting gRNA) or where MGST1 was knocked out (gRNA #2, gRNA 3).
Cell proliferation & viability assays. Anti-proliferative activity of XB05 and other compounds was evaluated using a previously published 3-(4,5-dimethylthiazol-2-yl)-2,5-diphenyltetrazolium bromide (MTT) assay protocol (MORGAN “Tetrazolium (MTT) assay for cellular viability and activity” Methods Mol Biol. (1998) Vol. 79, pp. 179-83, which is herein incorporated by reference in its entirety, BATES et al. “Antiproliferative activity of G-rich oligonucleotides correlates with protein binding” J Biol Chem. (1999) Vol. 274, No. 37, pp. 26369-26377, which is herein incorporated by reference in its entirety, SALIPUR et al. “A novel small molecule that induces oxidative stress and selectively kills malignant cells” Free Radic Biol Med. (2014) Vol. 68, pp. 110-121, which is herein incorporated by reference in its entirety). […]

[2] = DTNB assay for reactivity with free thiols, cysteine; type: physicochemical
Experimental: (§2) Dithiobis-2-nitrobenzioc acid (DTNB) assay for free sulfhydryls. Similar to previously described in SALIPUR et al. “A novel small molecule that induces oxidative stress and selectively kills malignant cells” Free Radic Biol Med. (2014) Vol. 68, pp. 110-121, which is herein incorporated by reference in its entirety, reactivity with free sulfhydryls was evaluated using DTNB (Sigma). Briefly, a 4× solution of DTNB (6 mM DTNB, 50 mM sodium acetate in 100 mM Tris-HCl, pH 8.0) and solutions of 0.5 mM cysteine (Sigma) and reduced glutathione (GSH, Sigma) in 100 mM Tris-HCl, pH 8.0 were freshly prepared. The 200 mM stock solutions of XB05, other compounds, diethylmaleate (Sigma), and maleimide (Sigma) were prepared in 100% DMSO, and subsequently diluted to 2× working solutions in 100 mM Tris-HCl, pH 8.0. Thiol compounds (final concentration 0.25 mM) and thiol-reactive compounds (final concentrations 0.04-5 mM) or vehicle were added in duplicate to a 96-well plate and incubated for 30 min at 37° C. DTNB solution was then added to each well (final concentration 400 μM), and incubated at room temperature for an additional 5 min. Absorbance at 412 nm was determined by a Biotek HT Synergy plate reader (Winooski, Vt.).

[3] = tested on: A549 (lung adenocarcinoma); assay: MTT antiproliferative assay in A549 cells; type: cell-based, human
Experimental: (§3) Cell culture. A549 and IMR-90 cells were purchased from the American Type Culture Collection (ATCC), while HOP-62 and HOP-92 were obtained from the cell line repository at the National Cancer Institute. Cells were grown in the appropriate medium supplemented with 10% fetal bovine serum (FBS, Life Technologies, Grand Island, N.Y.), 62.5 μg/mL penicillin and 100 μg/mL streptomycin (Life Technologies) in a humidified incubator at 37° C. with 5% CO2. The media were as follows: Dulbecco's modified Eagle's medium (DMEM, Life Technologies) for A549 cells; RPMI 1640 (Life Technologies) for HOP-62 and HOP-92 cells; Eagle's minimal essential medium (EMEM) with Eagle's balanced salt solution (EBSS), 2 mM L-glutamine, 1500 mg/L sodium bicarbonate (Lonza, Walkersville, Md.), supplemented with 1 mM sodium pyruvate (Life Technologies) and non-essential amino acids (Life Technologies) for IMR-90 cells. Cell lines were verified with a 9-marker short tandem repeat profile and inter-species contamination test (Idexx BioResearch), although A549 cells utilized in proliferation assays were missing the Y allele at the amelogenin marker.
(§4) Cell proliferation & viability assays. Anti-proliferative activity of XB05 and other compounds was evaluated using a previously published 3-(4,5-dimethylthiazol-2-yl)-2,5-diphenyltetrazolium bromide (MTT) assay protocol (MORGAN “Tetrazolium (MTT) assay for cellular viability and activity” Methods Mol Biol. (1998) Vol. 79, pp. 179-83, which is herein incorporated by reference in its entirety, BATES et al. “Antiproliferative activity of G-rich oligonucleotides correlates with protein binding” J Biol Chem. (1999) Vol. 274, No. 37, pp. 26369-26377, which is herein incorporated by reference in its entirety, SALIPUR et al. “A novel small molecule that induces oxidative stress and selectively kills malignant cells” Free Radic Biol Med. (2014) Vol. 68, pp. 110-121, which is herein incorporated by reference in its entirety). Cells were seeded in quadruplicate wells in 96-well plates and allowed to adhere overnight. […] After 72 hrs of treatment with XB05 or other compounds, MTT (Sigma, St. Louis, Mo.) was added for 4 hrs prior to cell lysis. Each assay was performed in at least triplicate.
(§5) XB05 and related compounds were assessed for anti-proliferative activity in malignant (A549) and non-malignant (IMR-90) cells (Table A2).

[4] = tested on: NCI60 human tumor cell line panel; assay: NCI60 human tumor cell line screen; type: cell-based
Excerpt: FIG. 1: Screens to Identify the role of Microsomal glutathione S-transferase 1 (MGST1). Results from the NCI's 60 human tumor cell lines screen. The COMPARE algorithm was used to probe microarray results from the cell lines to identify gene expression that correlated with this unusual pattern of growth inhibition.
NCI60 human tumor cell line screen of XB05 activity. To further investigate the initial observations of XB05's anti-cancer activities, XB05 was submitted to the National Cancer Institute's Developmental Therapeutics Program for testing with the NCI60 human tumor cell line panel. This panel consists of 60 well-characterized human tumor cell lines (SHOEMAKER “The NCI60 human tumour cell line anticancer drug screen” Nat Rev Cancer (2006) Vol. 6, No. 10, Vol. 813-823, which is herein incorporated by reference in its entirety).

[5] = tested on: IMR-90 (non-malignant lung fibroblasts); assay: MTT antiproliferative assay in IMR-90 cells; type: cell-based; conditions: Homo sapiens, 72 hrs treatment, read-out: MTT Antiproliferative Activity - IC50 (μM) IMR0 (non-malignant lung fibroblasts)
Experimental: as §3, §4, §5

[6] = tested on: A549 cells (non-transfected, non-targeting gRNA); assay: Relative proliferation of A549 cells that express MGST1 (non-transfected, non-targeting gRNA); type: cell-based, human; conditions: 72 h, non-transfected A549 and non-targeting gRNA
Experimental: as §1
Cell proliferation & viability assays. Anti-proliferative activity of XB05 and other compounds was evaluated using a previously published 3-(4,5-dimethylthiazol-2-yl)-2,5-diphenyltetrazolium bromide (MTT) assay protocol (MORGAN “Tetrazolium (MTT) assay for cellular viability and activity” Methods Mol Biol. (1998) Vol. 79, pp. 179-83, which is herein incorporated by reference in its entirety, BATES et al. “Antiproliferative activity of G-rich oligonucleotides correlates with protein binding” J Biol Chem. (1999) Vol. 274, No. 37, pp. 26369-26377, which is herein incorporated by reference in its entirety, SALIPUR et al. “A novel small molecule that induces oxidative stress and selectively kills malignant cells” Free Radic Biol Med. (2014) Vol. 68, pp. 110-121, which is herein incorporated by reference in its entirety). Cells were seeded in quadruplicate wells in 96-well plates and allowed to adhere overnight. […] After 72 hrs of treatment with XB05 or other compounds, MTT (Sigma, St. Louis, Mo.) was added for 4 hrs prior to cell lysis. […]

[7] = DTNB assay for reactivity with free thiols, reduced glutathione; type: physicochemical
Experimental: as §2

CCCCCC(O)C#CC(F)(F)Br (stereo not drawn) [XB05]
effect on cell proliferation after knockout of MGST1 [1]: reversed | DTNB Reactivity with Thiols - DTNB assay with Cysteine ([2]; 0.25 mM cysteine, 30 min at 37° C., pH 8.0): ND (DTNB ND - not detected at concentrations up to 2.5 mM) | reactivity with thiol of cysteine ([2]; FIG. 5): not reactive | IC30 value in A549 cells [3]: 1000 nM | IC50 ([3]; Homo sapiens, 72 hrs treatment, MTT): 0.4 µM | activity in the NCI60 screen ([4]; 60 human tumor cell lines): activity against about one-third of cancer cells | fold less sensitive (other cell lines in the screen) ([4]; less active cell lines versus sensitive cell lines): up to 1000 fold | IC50 [5]: 2.5 µM | cell proliferation, % of vehicle ([6]; 1 μM): approximately 20% | cell proliferation, % of vehicle ([6]; 2 μM): ~5% | DTNB Reactivity with Thiols - DTNB assay with Glutathione ([7]; 0.25 mM reduced glutathione, 30 min at 37° C., pH 8.0): ND (DTNB ND - not detected at concentrations up to 2.5 mM) | reactivity with thiol of glutathione ([7]; FIG. 6): not reactive
